Results from PubChem BioAssay (NCI).
“And” between values parts separate entries of the source, which are not always exact repeats. Equal values may be shown once.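 Exposure lasted 48 hours, with cells grown in 96-well plates and compounds tested at five concentrations. GI50 = concentration required for 50% inhibition of growth. At the TGI there is no net growth.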

Assays:
Assay in all cases: NCI tumour cell line growth inhibition, 48 h
HOP-92 NSCLC = system: HOP-92 NSCLC
M14 melanoma = system: M14 melanoma
UACC-257 melanoma = system: UACC-257 melanoma
TK-10 renal = system: TK-10 renal
SF-539 CNS = system: SF-539 CNS
MDA-MB-231 breast = system: MDA-MB-231 breast
MCF7 breast = system: MCF7 breast
HS 578T breast = system: HS 578T breast
RPMI-8226 leukemia = system: RPMI-8226 leukemia
HT29 colon = system: HT29 colon

| SMILES | TGI (HOP-92 NSCLC) | GI50 (M14 melanoma) | TGI (M14 melanoma) | TGI (UACC-257 melanoma) | TGI (TK-10 renal) | GI50 (SF-539 CNS) | TGI (SF-539 CNS) | GI50 (MDA-MB-231 breast) | TGI (MDA-MB-231 breast) | GI50 (MCF7 breast) | TGI (MCF7 breast) | GI50 (HS 578T breast) | TGI (HS 578T breast) | GI50 (RPMI-8226 leukemia) | TGI (RPMI-8226 leukemia) | GI50 (HT29 colon) | TGI (HT29 colon) | GI50 (HOP-92 NSCLC) | GI50 (UACC-257 melanoma) | GI50 (TK-10 renal) |
| --- | --- | --- | --- | --- | --- | --- | --- | --- | --- | --- | --- | --- | --- | --- | --- | --- | --- | --- | --- | --- |
| COc1ccc(S(=O)(=O)N(C(C)=O)c2ccccc2/C=C/c2cc[n+]([O-])cc2)cc1 | > 10 µM | 0.388 µM | 8.08 µM | > 10 µM | > 10 µM | 0.377 µM | 2.45 µM | 1.26 µM | > 10 µM | 0.428 µM | > 10 µM | 0.404 µM | > 10 µM | 0.953 µM | > 10 µM | 0.422 µM | > 10 µM |  |  |  |
| O=C([O-])CC(=O)[O-].[NH-][C@@H]1CCCC[C@H]1[NH-].[Pt+4] | > 100 µM | 16.7 µM | > 100 µM | > 100 µM | > 100 µM | 46.8 µM | > 100 µM | > 100 µM | > 100 µM |  |  | 19.6 µM | > 100 µM | 1.05 µM | > 100 µM | 6.13 µM | > 100 µM | > 100 µM | > 89 µM | > 100 µM |
| CC(SCc1ccccc1)C(=O)O (stereo not drawn) | > 100 µM |  | > 100 µM | > 100 µM | > 100 µM |  | > 100 µM |  | > 100 µM |  | > 100 µM |  | > 100 µM |  | > 100 µM |  | > 100 µM |  |  |  |
| CCCCn1c(=O)c(/C=C/C(=O)/C=C/c2cc3ccccc3n(CCCC)c2=O)cc2ccccc21 | 4.12 µM |  |  | 3 µM | 3.21 µM | 1.47 µM | 3.57 µM | 1.84 µM | 3.37 µM | 0.306 µM | 1.84 µM | 3.01 µM | 23.7 µM | 0.317 µM | 0.931 µM | 0.316 µM | 0.922 µM | 1.96 µM | 1.61 µM | 1.78 µM |
| C[N+](C)=c1ccc2nc3c(cc(NCCCNc4cc5oc6cc(=[N+](C)C)ccc-6nc5c5ccccc45)c4ccccc43)oc-2c1 | 40.1 µM | 1.63 µM | 3.18 µM | 16.3 µM | 39.3 µM | 1.73 µM | 3.76 µM | 1.33 µM | 4.83 µM | 0.885 µM | 3.23 µM | 7.22 µM | 45.6 µM | 1.69 µM | 13.1 µM | 1.81 µM | 6.29 µM | 14.7 µM | 4.34 µM | 17.3 µM |
| N#Cc1cc(S(=O)(=O)Nc2nc3ccccc3o2)c(SCc2ccccc2)cc1Cl | 34.2 µM | 25.4 µM | 52.7 µM | 55.9 µM | > 100 µM | 17.9 µM | 33.3 µM | 24.8 µM | 62.9 µM | 39.8 µM | > 100 µM | 25.4 µM | 62 µM | 30.9 µM | > 100 µM | 29.1 µM | 83.6 µM | 17.4 µM | 22.3 µM | 52 µM |
| C[C@@H]1CC[C@@]2(NC1)O[C@H]1C[C@H]3[C@@H]4CC[C@H]5C[C@@H](O)CC[C@]5(C)[C@H]4CC[C@]3(C)[C@H]1[C@@H]2C | > 100 µM |  | > 100 µM | > 100 µM | > 100 µM |  | 77.6 µM |  | > 100 µM |  | > 100 µM |  | > 100 µM |  | 85.6 µM |  | > 100 µM |  |  |  |
| NC(Cc1ccccc1)c1nccs1 (stereo not drawn) | > 100 µM |  | > 100 µM | > 100 µM | > 100 µM |  | > 100 µM |  | > 100 µM |  | > 100 µM |  | > 100 µM |  | > 100 µM |  | > 100 µM |  |  |  |
| O=c1[nH]c(=O)n(C2CC(O)C(CO)O2)cc1C(F)(F)F (stereo not drawn) | > 100 µM | 1.01 µM | > 34.5 µM | > 100 µM | > 100 µM | 0.456 µM | 7.21 µM | > 100 µM | > 100 µM | 0.038 µM |  | > 100 µM | > 100 µM | > 20.3 µM | > 100 µM | 33.8 µM | > 100 µM | > 100 µM | 8.61 µM | > 100 µM |
| COc1cc2nccc(Oc3ccc(NC(=O)c4cn(C(C)C)c(=O)n(-c5ccc(F)cc5)c4=O)cc3F)c2cc1OC | > 100 µM | 63.3 µM | > 100 µM | > 77.5 µM | > 100 µM | 1.6 µM | 3.38 µM | 2.61 µM | 39.5 µM | > 100 µM | > 100 µM | 2.64 µM | 89.2 µM | > 100 µM | > 100 µM | 6.25 µM | > 100 µM | 0.347 µM | 7.65 µM | > 70.7 µM |
| O=c1/c(=N\Nc2ccccc2)c2cccc3ccc4cccc1c4c32 | > 100 µM |  | > 100 µM | > 100 µM | > 100 µM |  |  |  | > 100 µM |  |  |  | > 100 µM |  | > 100 µM |  | > 100 µM |  |  |  |
| CCC1=C(CC2NCCc3ccccc32)CC2c3cc(OC)c(OC)cc3CCN2C1 (stereo not drawn) | 9.48 µM and 16.6 µM | 4.53 µM | 16 µM and 3.49 µM | 24.5 µM and 9.49 µM | 30.4 µM and 3.83 µM | 4.84 µM | 16.4 µM and 2.85 µM | 3.4 µM | 14.4 µM and 1.75 µM | 2.95 µM | 10.6 µM and 2.3 µM | 3.07 µM | 12.8 µM and 3.73 µM | 4.17 µM | 15.9 µM and 3.12 µM | 3.31 µM | 11.8 µM and 4.53 µM | 1.23 µM | 10 µM | 6.08 µM |
| CCN(Cc1c(F)cccc1Cl)c1ccc(CO)c(Cl)c1 | 0.933 µM | 17.6 µM | 35.9 µM | 0.05 µM |  | 15.5 µM | 29.8 µM | 13.3 µM | 27.1 µM | < 0.02 µM | 14.4 µM | 18.2 µM | 47 µM | 0.173 µM | 22 µM | 0.668 µM | 16 µM | 0.116 µM | < 0.0248 µM |  |
